Assay results from patent US8039501B2, “Synephrine derivatives useful as anti-inflammatory agents” (Universiteit Gent, priority 2005, dated 2011).
Residues, ends and D or L forms follow the SMILES beside them. *: point of attachment. Cbz = O=C(OCc1ccccc1)*

Key:
[1] = test system: pE-selectin-Luc (E-selectin promoter); assay: pE-selectin-Luc reporter gene assay in TNF-induced L929sA cells; assay type: cell-based, mouse; conditions: indicated concentrations, from -2 hours for 8 hours; TNF 2000 IU/ml 6 hours; FIG. 1
From the text: L929sA mouse fibroblast cells were stably transfected with pE-selectine-Luc (also referred to as pELAM-luc) by the calcium phosphate precipitation procedure described by De Bosscher et al. in Proc. Natl. Acad. Sci. USA (1997) 94, 13504-13509. The co-transfected plasmid pPGKβGeobpA, conferring resistance to G418 and expressing constitutive β-galactosidase enzymatic activity, was used as an internal control. L929sA cells were transiently transfected by the DEAE-dextran transfection method described by De Bosscher et al. (cited supra).
Recombinant murine tumor necrosis factor (TNF) was produced according to a method standard in the art. Dexamethasone (hereinafter abbreviated as DEX) commercially available from Sigma, and 2-(4-acetoxyphenyl)-2-chloro-N-methyl-ethylammonium chloride (hereinafter abbreviated as compound A) was synthesized according to Louw et al. in Biochemical Pharmacology (1997) 53, 189-197). A stock solution was prepared in ethanol (for DEX) or DMSO (for both comparative compound A and for the compound of example 6 according to this invention, i.e. 1-[4-(benzoyloxy)phenyl]-2-[(tert-butoxy-carbonyl)-methylamino]ethyl-1H-imidazole-1-carboxylate), aliquoted and stored at −70° C.
Induction was performed in triplicate for each independent experiment, which was carried out at least twice. Induction with DEX, compound A, and for the compound of example 6 according to this invention at 1 μM, 10 μM or respectively any other indicated concentration were performed at −2 hours for a total of 8 hours, while TNF (2000 IU/ml) was added at time point zero and left on the cells for 6 hours. After induction, cells were lysed with a lysis buffer (commercially available from Tropix, Bedford, Massachussets) and samples were assayed according to the manufacturer's instructions (Promega Biotech).
In order to investigate whether the inhibitory effect of compound A or the compound of example 6 according to this invention is directed at the transcriptional level of NF-κB-driven genes, the NF-κB-dependent physiological promoter construct, pE-selectin-Luc stably integrated into L929sA cells, was tested. […] DEX-mediated and compound A-mediated inhibition of TNF-induced gene expression were used as controls (FIG. 1). In the appended figures, NI stands for non-induced (either in presence of solvent controls like ethanol or DMSO).

[2] = test system: multiple myeloma cells U266; assay: MTT test, cell viability of U266 cells; assay type: cell-based, human; conditions: 10^−4 M, 10% FCS, FIG. 3A; for cytotoxicity at 100 µM: Homo sapiens, U-266, read-out: Block of U266 cell viability / cell killing
Description: (§1) The MTT test is a standard assay addressing cell toxicity of a compound. It is based on the principle that after 3-4 hours of cell incubation with MTT (3-(4,5-dimethylthiazole-2-yl)-2,5-diphenyl tetrazolium bromide) so-called purple formazan crystals develop in living and early apoptotic cells. Dead cells don't produce formazan crystals.
(§2) Different cell lines were tested. Unless indicated differently, A549 human lung epithelial cells (derived from lung carcinoma) and L929sA murine fibroblast cells were cultured in DMEM with 10% FCS, 100 U/ml penicillin and 100 μg/ml streptomycin. Unless indicated differently, the human multiple myeloma cell lines L363, U266 and MM1.S were cultured in RPMI 1640 with Glutamax-I, supplemented with 10% FCS, 100 U/ml penicillin and 100 μg/ml streptomycin. Cells were seeded at 5000 cells/well (for adherent A549 and L929sA cells) or at 10000 cells/well (for the multiple myeloma lines in suspension) in 96 well plates. Cells were incubated in the presence of the respective synephrine compounds or vehicle (EtOH; for control test) in a final volume of 0.2 ml for 24 or 48 hours at 37° C. Subsequently, 20 μl of MTT solution (5 mg/ml in phosphate-buffered saline) was added to each well. After 4 hours incubation at 37° C., 80 μl of the extraction buffer (10% SDS, 0.01 M HCl) was added. After overnight incubation at room temperature, the optical densities at 590 nm were measured. Results are illustrated in FIGS. 2 to 6 and are expressed as percentage of viable cells as compared to vehicle-treated controls.
(§3) The MTT test was further extended to include alternative synephrine derivatives and a range of multiple myeloma cell lines for which the results are illustrated by FIGS. 3A, 3B and 4A. Human multiple myeloma cell lines L363, U266 and MM1.S were cultured in RPMI 1640 with Glutamax-I, supplemented with 10% FCS, 100 U/ml penicillin and 100 μg/ml streptomycin. Cells were seeded at 10000 cells/well in 96 well plates. Cells were incubated in the presence of test compounds or vehicle in a final volume of 0.2 ml for 24 or 48 hours at 37° C. The test compounds included in the test were the synephrine derivatives CpdA, Naphth, Benz and Isobut, and DEX as a comparative example. Subsequently, 20 μl of MTT solution (5 mg/ml in phosphate-buffered saline) was added to each well. After 4 hours incubation at 37° C., 80 μl of the extraction buffer (10% SDS, 0.01 M HCl) was added. After 48 hours incubation at room temperature, the optical densities at 590 nm were measured. Results are expressed as percentage of viable cells as compared to vehicle-treated controls.

L363 cell line = assay: MTT test, cell viability of L363 cells; assay type: cell-based, human; conditions: 10% FCS, FIG. 3B; for Cell killing of L363 cells: 10^−5 M; for cytotoxicity at 100 µM: Homo sapiens, L-363, read-out: Block of L363 cell viability
Description: as §1, §2, §3

MM1.S cell line = assay: MTT test, cell viability of MM1.S cells; assay type: cell-based, human; conditions: 10% FCS, FIG. 4A
Description: as §1, §2, §3

[3] = MTT test, cell viability of L929sA fibroblasts; assay type: cell-based, murine; conditions: mouse, L929sA fibroblast cells; 10^−5 M; within 48 hours; FIG. 5B; read-out: Block of L929sA cell viability
Description: as §1, §2
(§4) In a further MTT test, the activity of the synephrine derivatives on the inhibition of cell viability of non-immune cells was measured. […] Tests were performed for 24 hours and for 48 hours. The results are illustrated by FIGS. 5A and 5B for L929 cells, and by FIGS. 6A and 6B for A549 cells. It was observed that CpdA at 10^−5 M blocked cell viability of L929sA and A549 for not more than 10%.

[4] = MTT test, cell viability of A549 cells; assay type: cell-based, human; conditions: human, A549 lung epithelial (carcinoma) cells; 10^−5 M; 48 hours; FIG. 6B; read-out: Block of A549 cell viability
Description: as §1, §2, §4

[5] = test system: A549 human lung epithelial cells; assay: MTT test, cell viability of A549 cells; assay type: cell-based
Description: as §1, §2, §4

B-CLL cells = assay: Annexin V/PI flow cytometric analysis of apoptosis in ex-vivo cultured B-CLL cells; assay type: cell-based, human; conditions: 24 hours
Description: Blood samples were obtained from B-CLL patients after informed consent according to institutional guidelines. CLL lymphocytes were isolated using Lymphoprep (Nycomed Pharma, Denmark) and re-suspended at a final concentration of 10−30×10^6 cells/ml in RPMI 1640 medium, supplemented with 10% heat-inactivated fetal bovine serum (FBS) (Greiner Bio-one, Wemmel, Belgium), 100 IU/ml penicillin, 100 μg/ml streptomycin, and 0.56 μg/mL fungizone (Gibco BRL, Merelbeke, Belgium). B-CLL cells were cultured in Dulbecco's Modified Eagle Medium (DMEM) (Gibco, Invitrogen Inc.) containing 10% FBS (Gibco, Invitrogen Inc.). For flow cytometric analysis of apoptosis, B-CLL cells were treated with the different compounds for 24 hours, 3×10^5 cells were removed from the culture medium, washed twice with cold PBS, and double stained with annexin V-fluorescein isothiocyanate (FITC) and propidium iodide (PI; Beckman Coulter, Miami, Fla.) in Annexin binding buffer, followed by analysis on a FC500PTM (Beckman Coulter, Nyon, Switzerland) flow cytometer. Flow cytometric data were analyzed using Cytomixs RXP software (Beckman Coulter, Nyon, Switzerland). To avoid non-specific fluorescence from dead cells, live cells were gated using forward and side scatter.
One of the early signs of apoptosis is the translocation of the membrane phospholipid phosphatidylserine from the cytoplasmic interface to the extracellular surface. Annexin V has a high affinity for the phospatidylserine-containing phospholipid bilayers. […] As the plasma membrane becomes increasingly permeable during the later stages of apoptosis, the DNA-binding dye PI can readily move across the cell membrane and bind to cellular DNA, providing a means to detect the loss of membrane integrity through mechanisms including necrosis. Three different cell populations can be observed in cells double-stained with AnnV-FITC and PI. […] Cells that stain with Ann V only are early apoptotic cells. And cells that stain with both AnnV and PI are late apoptotic/necrotic cells. The percentage of AnnV-positive B-CLL cells in the lymphocyte gate were measured by FACS and results were expressed as % apoptotic cells, i.e. sum of early apoptotic (AnnV+, PI−), and late apoptotic/dead cells (AnnV+, PI+). The percent of living cells was normalized to 100% living cells incubated in control medium with 0.1% EtOH. All measurements were made in duplicate and averaged.

MM1.S cell lines = assay: Annexin V/PI assay in MM1.S cells; assay type: cell-based, human; conditions: positive control, FIG. 13
Description: 1. […] Procedure: • Human multiple myeloma cell lines L363, U266, MM1.S and MMR.1 are cultured in RPMI 1640 with Glutamax-I, supplemented with 10% FCS, 100 U/ml penicillin and 100 μg/ml streptomycin. Cells are counted and resuspended in fresh medium at a concentration of 1×10^6/ml. Next, 1 ml of cell suspension is transferred to 5 ml culture tubes in the presence of test compounds (DEX, CpdA, CpdA analogues: 10^−7 to 10^−4 M) or vehicle (EtOH) and incubated for 24 or 48 hours at 37° C. • Double-staining of the cells with PI and annexin V is performed according to the instructions of the Annexin V kit (BD Biosciences). • Double-stained cells are analyzed by flow cytometry. […] Graphs are represented as the ratio of early apoptotic cells versus late apoptotic cells (a) or as total % of living cells (b).

Compound: CN(CC(OC(=O)n1ccnc1)c1ccc(OC(=O)c2ccccc2)cc1)C(=O)OC(C)(C)C (centres unmarked) [Benz, 1-[4-(benzoyloxy)phenyl]-2-[(tert-butoxycarbonyl)-methylamino]ethyl-1H-imidazole-1-carboxylate]
- Inhibition of TNF-induced gene expression (E-selectin gene induction) [1]: effectively inhibit TNF-induced E-selectin gene induction
- cytotoxicity at 100 µM [2]: 90%
- Cell killing of L363 cells (L363 cell line): 40%
- cytotoxicity at 100 µM (L363 cell line; 10^−4 M): 90%
- Inhibition of MM1.S cell viability (MM1.S cell line; 10^−5 M): block cell viability completely
- cytotoxicity at 48 h [3]: ≤ 20%
- cytotoxicity at 48 h [4]: 10%
- Block of A549 cell viability ([5]; 10^−5 M, 24 hours, FIG. 6A): not able to block cell viability

Compound: O=C(O)CCCc1ccc(N(CCCl)CCCl)cc1 [Chlorambucil]
- % apoptotic cells, CLL patient 1 (B-CLL cells; 25 · 10^−7M): 51%
- % apoptotic cells, CLL patient 2 (B-CLL cells; 25 · 10^−7M): 46%

Compound: Nc1nc(F)nc2c1ncn2[C@@H]1O[C@H](CO)[C@@H](O)[C@@H]1O [Fludarabine]
- % apoptotic cells, CLL patient 1 (B-CLL cells; 5 · 10^−6M): 56%
- % apoptotic cells, CLL patient 2 (B-CLL cells; 5 · 10^−6M): 63%

Compound: CC(C)C(=O)Oc1ccc(C(CN(C)C(=O)OC(C)(C)C)OC(=O)n2ccnc2)cc1 (centres unmarked) [Isobut, 1-[4-(isobutanoyloxy)phenyl]-2-[(tert-butoxycarbonyl)-methylamino]ethyl-1H-imidazole-1-carboxylate]
- Inhibition of TNF-induced gene expression (E-selectin gene induction) [1]: effectively inhibit TNF-induced E-selectin gene induction
- cytotoxicity at 100 µM [2]: 80%
- Cell killing of L363 cells (L363 cell line): 25%
- cytotoxicity at 100 µM (L363 cell line; 10^−4 M): 80%
- Inhibition of MM1.S cell viability (MM1.S cell line; 10^−5 M): block cell viability completely

Compound: CC(C)C[C@@H](C=O)NC(=O)[C@H](CC(C)C)NC(=O)[C@H](CC(C)C)NC(=O)OCc1ccccc1 [MG132, reference compound] (Cbz-Leu-Leu-Leu-aldehyde)
- Apoptosis (Annexin V/PI staining) (MM1.S cell lines): also mediates apoptosis

Compound: CN(CC(OC(=O)n1ccnc1)c1ccc(OC(=O)c2cccc3ccccc23)cc1)C(=O)OC(C)(C)C (centres unmarked) [Naphth, 1-[4-(1-naphthoyloxy)phenyl]-2-[(tert-butyloxycarbonyl)(methyl)amino]ethyl 1H-imida-zole-1-carboxylate]
- Block of U266 cell viability / cell killing [2]: 70%
- Block of L363 cell viability (L363 cell line; 10^−4 M): 90%
- Cell killing of L363 cells (L363 cell line): 40%
- Inhibition of MM1.S cell viability (MM1.S cell line; 10^−4 M): almost completely
- Inhibition of MM1.S cell viability (MM1.S cell line; 10^−5 M): about 35%
- Block of A549 cell viability ([5]; 10^−4 M, 48 hours, FIG. 6B): 20%
- Block of A549 cell viability ([5]; 10^−5 M, 24 hours, FIG. 6A): about 10%
- Block of A549 cell viability ([5]; 10^−5 M, 48 hours, FIG. 6B): not more than 20%

Compound: C[C@H]1C[C@@H]2[C@H]([C@@H](O)C[C@@]3(C)[C@H]2CC[C@]3(O)C(=O)COC(=O)CCC(=O)O)[C@@]2(C)C=CC(=O)C=C12 [Solumedrol]
- % apoptotic cells, CLL patient 1 (B-CLL cells; 10^−7M): 60%
- % apoptotic cells, CLL patient 2 (B-CLL cells; 10^−7M): 34%

Compound: CCCCCC(=O)Oc1ccc(C(O)CN(C)C(=O)OC(C)(C)C)cc1 (centres unmarked) [example 6, 4-{2-[(tert-butoxycarbonyl)(methyl)amino]-1-hydroxyethyl}phenyl hexanoate]
- Inhibition of TNF-induced gene expression (E-selectin gene induction) [1]: observed in a dose-responsive manner
